Results reported in patent US20230332203A1, “RAPID ANTIBIOTIC SUSCEPTIBILITY TESTING” (IOWA STATE UNIVERSITY RESEARCH FOUNDATION, INC., priority 2022, published 2023).

How the values were obtained:
[1] = tested on: Staphylococcus aureus 25923 (susceptible); assay: Microdroplet culture with D2O labeling, average mass of PG 32:0 by MALDI-MS (Orbitrap and Biotyper); assay type: cell-based; conditions: increasing methicillin concentration, 20% D2O, 4 hours
Experimental: (§1) The disclosed method was tested using the Bruker Biotyper and the results were compared to data using the method that was previously established on an Orbitrap mass spectrometer. A common cell membrane lipid, phosphatidylglycerol (PG) 32:0 was used as an indicator. Since a higher average mass is indicative of more growth, a reduced average mass indicates susceptibility to methicillin. The Biotyper is an economical and more accessible instrument but has less resolution and more error in the measurements. However, data from the Biotyper results in the same conclusions when compared to data from the Orbitrap. […]
(§2) μFocus samples were analyzed in negative ion mode using an Orbitrap Q Exactive HF mass spectrometer (Thermo Scientific, San Jose, CA) with a Spectroglyph MALDI source (Spectroglyph, Kennewick, WA) equipped with a 349 nm laser (Explorer One; Spectra Physics, Milpitas, CA) using a 500 Hz repetition rate and ˜4 μJ per shot. Samples were analyzed at 120,000 resolving power at m/z 200. Spots were analyzed using 60 μm spatial resolution to ensure a good representation of the sample and resulting spectra were averaged in Xcalibur. Masslists from averaged spectra were then exported to .csv files and average mass of membrane lipids were calculated using a custom Python script. […]

[2] = tested on: methicillin-resistant Staphylococcus aureus 33591; assay: as above; assay type: cell-based; conditions: range of methicillin concentrations, 20% D2O, 4 hours
Experimental: as §1, §2

COc1cccc(OC)c1C(=O)N[C@@H]1C(=O)N2[C@@H]1SC(C)(C)[C@@H]2C(=O)O [methicillin]
effect on average mass of PG 32:0 [1]: constant decrease | effect on average mass of PG 32:0 [2]: does not decrease the average mass significantly
